From patent US11382848B2, “Compounds reducing malodour perception and the use thereof” (CHEMCOM S.A., priority 2017, dated 2022) come the findings set out here.

Test [1] concerns forskolin-induced, receptor-independent production of cAMP / Luciferase. As to the kind of experiment: Forskolin control in cells not expressing the receptor (luciferase assay). In kind it is cell-based. Particulars: cells that did not express the receptor, stimulated by forskolin. As to the method:
(§1) Briefly, cells were plated on poly-D-lysine-coated 96-well plates (BD Bioscience, Erembodegem-Dorp, Belgium) and transfected with a plasmid containing CRE-luciferase and a plasmid containing OR7D4. Sixteen hours after transfection, the culture medium was replaced by serum-free EMEM containing the tested ligands at a determined concentration. After four hours of incubation at 37° C. degree, cells were lysed and processed for luminescence measurement according to the manufacturer's protocols. Luminescence emission was recorded on a Spectra Max M5 reader (Molecular Devices, Sunnyvale, Calif.). Results were expressed as percentage of the response induced by 10 μM of the adenylate cyclase activator Forskolin.

Test [2] deals with T1, human olfactory receptor OR7D4 (Homo sapiens, UniProt Q8NG98).
T1 construct: transfected with a plasmid containing CRE-luciferase and a plasmid containing OR7D4; expressed in transfected cells; host or cells: HEK293T stably expressing olfactory chaperone proteins of the RTP family
T1 sequence (Q8NG98 1-312): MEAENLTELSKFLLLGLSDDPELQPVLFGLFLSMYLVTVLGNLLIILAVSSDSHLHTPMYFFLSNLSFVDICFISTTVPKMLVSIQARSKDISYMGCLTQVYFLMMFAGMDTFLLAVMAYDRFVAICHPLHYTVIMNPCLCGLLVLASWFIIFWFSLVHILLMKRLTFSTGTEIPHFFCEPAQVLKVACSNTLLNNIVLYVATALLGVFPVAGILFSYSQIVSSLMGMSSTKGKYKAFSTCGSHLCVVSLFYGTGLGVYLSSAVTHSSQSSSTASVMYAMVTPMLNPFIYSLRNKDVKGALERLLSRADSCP
As to the kind of experiment: OR7D4 luciferase gene reporter assay (antagonism of agonist-induced activation). It counts as cell-based. As for the experimental part:
Cells were maintained in minimal essential medium (EMEM, Lonza) containing 10% fetal bovine serum (M10). HEK293T stably expressing olfactory chaperone proteins from the RTP family as described in WO 2006/002161 (introduced here as a reference) were generated by transfecting HEK293T cells with expression vector containing the chaperone gene sequences and a resistance gene to puromycin, using Lipofectamine 2000. A recombinant cell population was selected by adding 10 μg/ml of puromycin into the culture medium. Monoclonal populations were further obtained by limit dilution procedure. Briefly, a cell suspension was diluted to contain 1 cell per ml and this dilution was dispatched in poly-D-lysine-coated 96 well plates (200 μl of dilution per well). After 5 days of culture, the presence and number of cell colonies per well was checked under a phase contrast microscope. After 5 additional days of culture, wells containing a single colony were harvested and each collected population was amplified independently.
The 5-alpha-androst-16-ene-3-one, used as an agonist of the human olfactory receptor OR7D4 and the tested molecules were diluted at a concentration of 1 mole/litre (M) into dimethyl sulfoxide (DMSO) to generate stock solutions.
For concentration-response analysis, serial dilutions of the tested molecules were prepared from stock solutions in EMEM plated into 96-well plates.
as §1
The ability of the compounds of the invention to inhibit the activity of androstenone on OR7D4 receptor was assessed by the luciferase assay described above.
To determine whether a molecule antagonizes OR7D4, this compound was introduced in the incubation medium of the Luciferase assay described above at a concentration of either 316 μM, 100 μM or 31.6 μM, along with the known activator of the receptor 5α-androst-16-en-3-one at a concentration of 31.6 μM. Molecules were considered as “hits” i.e., as having an antagonist effect on the receptor, if they induced a decrease of at least 50% of the luciferase production elicited upon activation of OR7D4 by 5α-androst-16-en-3-one.
Putative antagonist molecule libraries containing compound 1 and other types of molecules were used to identify antagonist of the receptor OR7D4. The screening campaign was performed on the OR7D4 with a series of 112 putative antagonist molecules. In this screening campaign, compound 1 was identified as a hit.
The compound 1 was further confirmed as antagonist of OR7D4 by performing dose-response analysis using the luciferase assay. Different concentrations of compound 1, ranging from 31.6 nM to 1 mM were tested on HEK293 cell expressing OR7D4 and stimulated with 31.6 μM of 5α-androst-16-en-3-one.
The antagonistic property of compound 1 on OR7D4 was further confirmed by measuring the response of the OR7D4 to 5α-androsta-4,16-dien-3-one in presence of compound 1, using the luciferase assay as describe hereinabove. The observed inhibition was in the same range as the one observed when stimulating the receptor with 5α-androst-16-en-3-one.
To further explore the antagonism on OR7D4, a series of compounds structurally related to compound 1 were synthesized and assessed as antagonists of OR7D4 by dose-response analysis using the luciferase assay. […]

Test [3] concerns perception of androstenone. The test is described as follows: Alternative sensory test with Tedlar bags and expert panel. As for the experimental part: The test consists, in a first step, in microinjecting androstenone (at 0.6% in ethanol), compound 1 (pure) or androstenone+compound 1 in 10 L Tedlar™ bags specially conceived for gas sampling, previously loaded with a known volume of pure air (from oil free compressor with additional charcoal filters). Than the compound of interest (EtOH solution) is injected with a high accuracy micro-syringe through a septum placed on the tap-valve.
The odour presentation device consists of a cylinder to be filled with clean air. The bag is inserted in the cylinder and connected to a sampling installation in the cylinder by means of a valve. By controlled injection of clean air into the cylinder, the interior pressure is raised and the sampling air is pressed in a controlled manner out of the sample container through the opened valve. This sampling air is transferred to the nose of the corresponding sensory odour panel member by means of a funnel. By this means, each sensory odour panel member receives an identical sample with a standardized volume flow and a constant provision time. The outlet flow rate is between 10-20 L/min (in order to avoid any mixing with ambient air before reaching the nose).
The expert panel is entering the room 15 minutes before starting the test. The basic standard test is a rating in intensity and the use of the closest chemical descriptors according to the following order of presentation:
Each assessor can smell for few seconds. A pause of min. 1 minute is considered between presentations.
The individual rating is done with a resolution of 0.5 on a scale ranging from 0 (no odour) to 5 (saturating odour).

On to `CCCCCCC(=C\c1ccccc1)/C=C(\C)C(=O)OCC` [Compound 1, ethyl (E)-4-((E)-benzylidene)-2-methyldec-2-enoate], for which the “forskolin-induced production of Luciferase” value in test [1] is reported as “not affected”. Also, in test [2] (31.6 nM to 1 mM compound, HEK293 cell expressing OR7D4 stimulated with 31.6 μM 5α-androst-16-en-3-one), the “Luciferase activity elicited by 5α-androst-16-en-3-one, dose-response (FIG. 1)” value was “decrease of Luciferase activity”. Besides, in test [2] (compound at 316 μM, 100 μM or 31.6 μM with 5α-androst-16-en-3-one at 31.6 μM, 112 putative antagonist molecules screened), the “hit in antagonist screening (decrease of at least 50% of the luciferase production)” value is recorded as “hit”. The IC50 in test [2] (dose-response, luciferase assay, half decrease of the luciferase production obtained without antagonist, androstenone at 31.6 micromolar) was found to be 2000 nM; in test [2] (response of OR7D4 to 5α-androsta-4,16-dien-3-one in presence of compound), 2500 nM. The “typical odour of sweat of Androstenone when smelled in the presence of the compound” value in test [3] (Androstenone + compound 1) is listed as “completely disappears”. For the same compound, the intrinsic smell entry in test [3] (compound 1 alone) is “mushroom”. Moreover, the odour intensity entry in test [3] (compound 1 alone compared with androstenone alone) is recorded as “lower than the one of androstenone alone”.
